As usually defined, the Ki is the equilibrium dissociation constant of an inhibitor or competing ligand from its target.

Data on 29 molecules can be found in patent publication US20050059726A1, “Pyrrolidine-2-ones as factor xa inhibitors” (priority 2001, published 2005).

For this assay, the target named is human Factor Xa (Homo sapiens, UniProt P00742). The experiment in a line: In vitro assay for inhibition of Factor Xa (2), fluorogenic assay. To be noted: substrate Rhodamine 110, bis-(CBZ-glycylglycyl-L-arginine amide 10 μM), Ki calculated from IC50. The class given is biochemical. The method, then:
In Vitro Assay for Inhibition of Factor Xa (2)
All other compounds of the present invention were tested for their Factor Xa inhibitory activity as determined in vitro by their ability to inhibit human Factor Xa in a fluorogenic assay, using Rhodamine 110, bis-(CBZ-glycylglycyl-L-arginine amide as the fluorogenic substrate. Compounds were diluted from a 10 mM stock solution in dimethylsulfoxide at appropriate concentrations. Assay was performed at room temperature using buffer consisting of: 50 mM Tris-HCl, 150 mM NaCl, 5 mM CaCl2, pH 7.4. containing human Factor Xa (final conc. Of 0.0003U.ml−1). Compound and enzyme were preincubated for 15 min prior to addition of the substrate (final conc. of 10 μM). The reaction was stopped after 3 hrs with the addition of H-D-PHE-PRO-ARG-Chloromethylketone. […] To obtain IC50 values the data were analysed using ActivityBase® and XLfit®.
Calculation of Ki values:
Ki=IC50/(1+[Substrate]/Km)
The Ki value for the above assay can be obtained by dividing the IC50 value by 1.6.

Where a name gives a salt, the structure may show the parent alone. Bounds are passed on as bounds.

human Factor Xa, sequence (P00742 235-488 limits assumed): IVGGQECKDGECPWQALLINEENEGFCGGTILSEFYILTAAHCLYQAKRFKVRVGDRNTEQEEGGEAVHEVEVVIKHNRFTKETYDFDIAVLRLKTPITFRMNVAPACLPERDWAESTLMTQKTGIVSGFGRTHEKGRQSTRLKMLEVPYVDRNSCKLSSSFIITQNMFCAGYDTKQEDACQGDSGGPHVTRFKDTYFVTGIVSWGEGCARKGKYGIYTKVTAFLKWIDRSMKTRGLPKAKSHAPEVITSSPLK
human Factor Xa, sequence (P00742 41-179 partner limits assumed): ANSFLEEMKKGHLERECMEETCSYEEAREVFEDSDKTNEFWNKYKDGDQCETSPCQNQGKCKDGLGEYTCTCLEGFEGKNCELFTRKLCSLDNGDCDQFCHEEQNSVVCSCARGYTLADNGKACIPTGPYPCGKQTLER

Regarding `C/C(=C\S(=O)(=O)N[C@H]1CCN(c2ccc(-c3ccccc3S(C)(=O)=O)cc2F)C1=O)c1ccc(Cl)s1` [Example 39, (1E)-2-(5-Chlorothien-2-yl)-N-{(3S)-1-[3-fluoro-2′-(methylsulfonyl)-1,1′-biphenyl-4yl]-2-oxopyrrolidin-3-yl}prop-1-ene-1-sulfonamide], the inhibitory constant (Ki) was < 10 nM. Then `CC(C)(C)OC(=O)CN([C@H]1CCN(c2ccc(-c3ccccc3S(C)(=O)=O)cn2)C1=O)S(=O)(=O)/C=C/c1ccc(Cl)s1` [Example 40, tert-Butyl [{[(E)-2-(5-Chlorothien-2-yl)ethenyl]sulfonyl}((3S)-1-{5-[2-(methylsulfonyl)phenyl]pyridin-2-yl}-2-oxopyrrolidin-3-yl)amino]acetate], with < 10 nM; and `CS(=O)(=O)c1ccccc1-c1ccc(N2CC[C@H](N(CCN3CCOCC3)S(=O)(=O)/C=C/c3ccc(Cl)s3)C2=O)nc1` [Example 42, (E)-2-(5-Chlorothien-2-yl)-N-((3S)-1-{5-[2-(methylsulfonyl)Phenyl]pyridin-2-yl}-2-oxopyrrolidin-3-yl)-N-(2-morpholin-4-ylethyl)ethenesulfonamide Formate Salt (1:1)], with < 10 nM. `CS(=O)(=O)c1ccccc1-c1ccc(N2CC[C@H](N(CC(N)=O)S(=O)(=O)/C=C/c3ccc(Cl)s3)C2=O)nc1` [Example 43, 2-[{[(E)-2-(5-Chlorothien-2-yl)ethenyl]sulfonyl}((3S)-1-{5-[2-(methylsulfonyl)phenyl]pyridin-2-yl}-2-oxopyrrolidin-3-yl)amino]acetamide]: the Ki is < 10 nM. For `CC(C)(C)OC(=O)N([C@H]1CCN(c2ccc(-c3ccccc3S(C)(=O)=O)cc2F)C1=O)S(=O)(=O)/C=C/c1ccc(Cl)s1` [Example 44, tert-Butyl [(E)-2-(5-chlorothien-2-yl)ethenyl]sulfonly{(3S)-1-[3-fluoro-2′-(methylsulfonyl)-1,1′-biphenyl-4yl]-2-oxopyrrolidin-3-yl}carbamate], the inhibitory constant (Ki) is < 10 nM.

Take `CS(=O)(=O)c1ccccc1-c1ccc(N2CC[C@H](N(CCN3CCOCC3)S(=O)(=O)/C=C/c3ccc(Cl)s3)C2=O)c(F)c1` [Example 45, (E)-2-(5-Chlorothien-2-yl)-N-{(3S)-1-[3-fluoro-2′-(methylsulfonyl)-1,1′-biphenyl-4-yl]-2-oxopyrrolidin-3-yl}-N-(2-morpholin-4-ylethyl)ethenesulfonamide]: the Ki was < 10 nM. In the case of `CS(=O)(=O)c1ccccc1-c1ccc(N2CC[C@H](N(CC(N)=O)S(=O)(=O)/C=C/c3ccc(Cl)s3)C2=O)c(F)c1` [Example 46] it was < 10 nM; in that of `CC(C)(C)OC(=O)CN([C@H]1CCN(c2ccc(-c3ccccc3S(C)(=O)=O)cc2F)C1=O)S(=O)(=O)/C=C/c1ccc(Cl)s1` [Example 47, tert-Butyl ({[(E)-2-(5-chlorothien-2-yl)ethenyl]sulfonyl}{(3S)-1-[3-fluoro-2′-(methylsulfonyl)-1,1′-biphenyl-4-yl]-2-oxopyrrolidin-3-yl}amino)acetate], < 10 nM. Regarding `CS(=O)(=O)c1ccccc1-c1ccc(N2CC[C@H](N(CC(=O)O)S(=O)(=O)/C=C/c3ccc(Cl)s3)C2=O)nc1` [Example 48, {[(E)-2-(5-Chlorothien-2-yl)(ethenyl]sulfonyl}((3S)-1-{5-[2-(methylsulfonyl)phenyl]pyridin-2-yl}-2-oxopyrrolidin-3-yl)amino]acetic Acid], the Ki is < 10 nM. In the case of `CS(=O)(=O)c1ccccc1-c1ccc(N2CC[C@H](N(CC(=O)O)S(=O)(=O)/C=C/c3ccc(Cl)s3)C2=O)c(F)c1` [Example 49] it was < 10 nM; in that of `NC(=O)c1cccc(-c2ccc(N3CC[C@H](NS(=O)(=O)c4ccc5cc(Cl)ccc5c4)C3=O)c(F)c2)c1` [Example 50, 4′-[(S)-3-(6-Chloro-naphthalene-2-sulphonylamino)-2-oxo-pyrrolidin-1-yl]-3′-fluoro-biphenyl-3-carboxylic Acid Amide], < 10 nM. Turning to `CSc1ccccc1-c1cnc(N2CC[C@H](NS(=O)(=O)c3ccc4cc(Cl)ccc4c3)C2=O)s1` [Example 51, 6-Chloro-naphthalene-2-sulphonic Acid [(S)-1-[5-(2-methylsulphanylphenyl)-thiazol-2-yl]-2-oxo:pyrrolidin-3-yl]amide], the Ki was < 200 nM.

Consider `CS(=O)(=O)c1ccccc1-c1ccc(N2CC[C@H](NS(=O)(=O)c3cccc(CN)c3)C2=O)c(F)c1` [Example 53, 3-(Aminomethyl)-N-{(3S)-1-[3-fluoro-2′-(methylsulfonyl)-1,1′-biphenyl-4-yl]-2-oxopyrrolidin-3-yl}benzenesulfonamide], for which the Ki is < 20 nM. As for `O=C1[C@@H](NS(=O)(=O)c2ccc3cc(Cl)ccc3c2)CCN1c1ccc(-c2ccncc2)cc1F` [Example 55, 6-Chloro-N-[(3S)-1-(2-fluoro-4-pyridin-4-ylphenyl)-2-oxopyrrolidin-3-yl]naphthalene-2-sulfonamide], the inhibition constant Ki was < 10 nM. Then `COc1ncc(-c2ccc(N3CC[C@H](NS(=O)(=O)c4ccc5cc(Cl)ccc5c4)C3=O)c(F)c2)c(OC)n1` [Example 56, 6-Chloro-N-{(3S)-1-[4-(2,4-dimethoxypyrimidin-5-yl)-2-fluorophenyl]oxopyrrolidin-3-yl}naphthalene-2-sulfonamide], with < 200 nM; and `O=C1[C@@H](NS(=O)(=O)c2ccc3cc(Cl)ccc3c2)CCN1c1ccc(-c2cccnc2)cc1F` [Example 57, 6-Chloro-N-[(3S)-1-(2-fluoro-4-pyridin-3ylphenyl)-2-oxopyrrolidin-3-yl]naphthalene-2-sulfonamide], with < 10 nM; and `COc1ccc(-c2ccc(N3CC[C@H](NS(=O)(=O)c4ccc5cc(Cl)ccc5c4)C3=O)c(F)c2)cn1` [Example 58, 6-Chloro-N-{(3S)-1-[2-fluoro-4-(6-methoxypyridin-3-yl)phenyl]-2-oxopyrrolidin-3-yl}naphthalene-2-sulfonamide], with < 200 nM. Then `CSc1ccc(-c2ccc(N3CC[C@H](NS(=O)(=O)c4ccc5cc(Cl)ccc5c4)C3=O)c(F)c2)cn1` [Example 60, 6-Chloro-N-((3S)-1-{2-fluoro-4-[6-(methylthio)pyridin-3-yl]phenyl}-2-oxopyrrolidin-3-yl)naphthalene-2-sulfonamide], with < 200 nM. Then `O=C1[C@@H](NS(=O)(=O)c2ccc3cc(Cl)ccc3c2)CCN1c1ccc(-c2cncc(Br)c2)cc1F` [Example 61, N-{(3S)-1-[4-(5-Bromopyridin-3-yl)-2-fluorophenyl]-2-oxopyrrolidin-3-yl}-6-chloronaphthalene-2-sulfonamide], with < 200 nM; and `COc1ccncc1-c1ccc(N2CC[C@H](NS(=O)(=O)c3ccc4cc(Cl)ccc4c3)C2=O)c(F)c1` [Example 62, 6-Chloro-N-{(3S)-1-[2-fluoro-4-(4-methoxypyridin-3-yl)phenyl]-2-oxopyrrolidin-3-yl}naphthalene-2-sulfonamide], with < 10 nM. As for `O=C1[C@@H](NS(=O)(=O)c2ccc3cc(Cl)ccc3c2)CCN1c1ccc(-c2cncnc2)cc1F` [Example 63, 6-Chloro-N-[(3S)-1-(2-fluoro-4-pyrimidin-5-ylphenyl)-2-oxopyrrolidin-3-yl]naphthalene-2-sulfonamide], the inhibition constant (Ki) was < 200 nM. `NCc1cccc(-c2ccc(N3CC[C@H](NS(=O)(=O)c4ccc5cc(Cl)ccc5c4)C3=O)c(F)c2)c1` [Example 64]: the Ki is < 10 nM. Consider `O=C1[C@@H](NS(=O)(=O)c2ccc3cc(Cl)ccc3c2)CCN1c1ccc(-c2ccoc2)cc1F` [Example 65, 6-Chloro-N-{(3S)-1-[2-fluoro-4-(3-furyl)phenyl]-2-oxopyrrolidin-3-}naphthalene-2-sulfonamide], for which the Ki was < 200 nM. Then `O=C1[C@@H](NS(=O)(=O)c2ccc3cc(Cl)ccc3c2)CCN1c1ccc(-c2ccsc2)cc1F` [Example 67, 6-Chloro-N-[(3S)-1-(2-fluoro-4-thien-3-ylphenyl)-2-oxopyrrolidin-3-yl]naphthalene-2-sulfonamide], with < 200 nM; and `Cc1ccc(-c2ccc(N3CC[C@H](NS(=O)(=O)c4ccc5cc(Cl)ccc5c4)C3=O)c(F)c2)s1` [Example 68, 6-Chloro-N-{(3S)-1-[2-fluoro-4-(5-methylthien-2-yl)phenyl]-2-oxopyrrolidin-3-yl}naphthalene-2-sulfonamide], with < 200 nM; and `Cc1cscc1-c1ccc(N2CC[C@H](NS(=O)(=O)c3ccc4cc(Cl)ccc4c3)C2=O)c(F)c1` [Example 69, 6-Chloro-N-{(3S)-1-[2-fluoro-4-(4-methylthien-3-yl)phenyl]-2-oxopyrrolidin-3-yl}naphthalene-2-sulfonamide], with < 200 nM. For the molecule `O=Cc1ccsc1-c1ccc(N2CC[C@H](NS(=O)(=O)c3ccc4cc(Cl)ccc4c3)C2=O)c(F)c1` [Example 70, 6-Chloro-N-{(3S)-1-[2-fluoro-4-(3-formylthien-2-yl)phenyl]-2-oxopyrrolidin-3-yl}naphthalene-2-sulfonamide], the inhibitory constant (Ki) is < 20 nM. Then `O=C1[C@@H](NS(=O)(=O)c2ccc3cc(Cl)ccc3c2)CCN1c1ccc(-c2ccc(Cl)s2)cc1F` [Example 71, 6-Chloro-N-{(3S)-1-[4-(5-chlorothien-2-yl)-2-fluorophenyl]-2-oxopyrrolidin-3-yl}naphthalene-2-sulfonamide], with < 200 nM; and `Cc1noc(C)c1-c1ccc(N2CC[C@H](NS(=O)(=O)c3ccc4cc(Cl)ccc4c3)C2=O)c(F)c1` [Example 72, 6-Chloro-N-{(3S)-1-[4-(3,5-dimethylisoxazol-4-yl)-2-fluorophenyl]-2-oxopyrrolidin-3-yl}naphthalene-2-sulfonamide], with < 20 nM.
